# According to patent publication US20240049706A1, “COMPOSITIONS AND METHODS FOR CONTROLLING INSECTS” (priority 2020, published 2024):
# Assays:
# [1] = 20 mg/mL; for percentage existing / remaining (not damaged) after autoxidation: 168 h; for percentage degraded by autoxidation: 7 days
# Excerpt: Results were reported as concentration of EO as function of time for each stability condition.
# [2] = 7 days, 20 mg/mL
# Excerpt: One replicate of each EO per treatment was collected daily and tested for EO content. Results were reported as concentration of EO as function of time for each stability condition.
# [3] = Loading (encapsulation) efficacy of essential oils into AgriCell, UV-Vis after ethanol extraction; assay type: physicochemical; details: EO encapsulated into AgriCell; original concentration of EO 200 mg/mL
# Method: After […] are purified, the concentrated […] paste or dry lyophilized powder is loaded with EOs. If dry, the […] are first homogenized into a finer powder through mechanical homogenization. A stock solution from each EO is prepared in ethanol at 100 mg/mL-200 mg/mL. Lyophilized […] would then be suspended in a solution with the EO solution at a ratio of 1 g of dry […] to 10 mL of EO solution. Once resuspended, the ethanol is allowed to evaporate overnight, leaving behind EO encapsulated […] in the process. After this overnight period, encapsulated […] are removed from the beaker, and the EO-encapsulated […] powder is mechanically homogenized. This encapsulated product is ready for resuspension in its appropriate medium.
SMILES,percentage existing / remaining (not damaged) after autoxidation [1] [%],percentage degraded by autoxidation [1] [%],percentage of degradation (thermal) [2] [%],encapsulation efficacy [3] [%]
"C=CCc1ccc(O)c(OC)c1 [free eugenol, Eugenol]",17.3,82.7,82.7,95.5
"Cc1ccc(C(C)C)c(O)c1 [free thymol, thymol]",44.2,55.8,79.1,91.8
